Assay results: publication PMC9945863, “Pyridine based dual binding site aromatase (CYP19A1) inhibitors” (RSC Medicinal Chemistry, 2023)
Where two headings read alike, the source gives them in different places.

Experiments:
Aromatase (CYP19A1) = biological target: T1, Aromatase (CYP19A1) (Homo sapiens, UniProt P11511); assay: Aromatase activity, modified tritiated water assay in JEG-3 cells; format: cell-based
T1 construct: placental choriocarcinoma JEG-3 cells, known to have high aromatase activity; host or cells: JEG-3
T1 sequence (P11511 1-503): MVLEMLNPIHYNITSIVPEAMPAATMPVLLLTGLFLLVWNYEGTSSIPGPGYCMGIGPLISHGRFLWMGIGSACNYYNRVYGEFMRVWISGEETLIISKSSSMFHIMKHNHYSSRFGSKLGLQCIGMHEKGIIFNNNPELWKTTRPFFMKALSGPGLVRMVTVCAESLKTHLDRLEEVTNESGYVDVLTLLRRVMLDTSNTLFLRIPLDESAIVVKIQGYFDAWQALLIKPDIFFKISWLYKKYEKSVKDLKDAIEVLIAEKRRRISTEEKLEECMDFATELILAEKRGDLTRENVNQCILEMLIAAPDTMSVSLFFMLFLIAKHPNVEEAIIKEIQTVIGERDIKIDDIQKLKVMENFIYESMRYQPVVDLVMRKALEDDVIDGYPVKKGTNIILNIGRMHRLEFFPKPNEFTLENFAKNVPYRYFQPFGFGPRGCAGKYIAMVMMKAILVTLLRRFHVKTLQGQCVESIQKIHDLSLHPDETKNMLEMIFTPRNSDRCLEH
Experimental: Briefly, placental choriocarcinoma JEG-3 cells, known to have high aromatase activity, were grown to approximately 80% confluence in six-well culture plates. Once established, cells were treated with androst-4-ene-3,17-dione[1β-^3H] as aromatase substrate. Aromatase activity was measured in the absence and presence of inhibitors (Fig. 3).
Aromatase activity results were determined as a concentration of product formed per mg of protein per hour.
Aromatase activity was assayed using a modified tritiated water assay as previously reported.[12] JEG-3 cells were grown in 1 mL EMEM to approximately 80% confluence in six-well cell culture plates. Androst-4-ene-3,17-dione[1β-^3H] was dissolved in serum-free cell culture medium and added into each well. Aromatase activity was measured in the absence and presence of inhibitor (0.001–10 nM). After a 1 h incubation at 37 °C followed by a 5 min incubation on ice, 500 μL of culture medium was taken from each well. Medium was vortexed with 2% dextran-treated charcoal (Sigma-Aldrich) in PBS and centrifuged at 4000 rpm. The supernatant containing the product, [^3H] H2O, was quantified by scintillation counting. Cell protein concentrations were determined using Pierce BCA assay kit (Thermo Fisher Scientific). Aromatase activity results were determined as a concentration of product formed per mg of protein per hour (pmol mg^−1 h^−1).

CYP1A2 [1] = biological target: T2, CYP1A2 (Homo sapiens, UniProt P05177); assay: CYP panel inhibition, human liver microsomal assay (Cyprotex); format: in vitro ADME; conditions: human liver microsomes, isoform specific probe substrate
T2 construct: using a human liver microsomal assay with a CYP isoform specific probe substrate; tissue Cyprotex Discovery Limited; host or cells: human liver microsomes
T2 sequence (P05177 1-516): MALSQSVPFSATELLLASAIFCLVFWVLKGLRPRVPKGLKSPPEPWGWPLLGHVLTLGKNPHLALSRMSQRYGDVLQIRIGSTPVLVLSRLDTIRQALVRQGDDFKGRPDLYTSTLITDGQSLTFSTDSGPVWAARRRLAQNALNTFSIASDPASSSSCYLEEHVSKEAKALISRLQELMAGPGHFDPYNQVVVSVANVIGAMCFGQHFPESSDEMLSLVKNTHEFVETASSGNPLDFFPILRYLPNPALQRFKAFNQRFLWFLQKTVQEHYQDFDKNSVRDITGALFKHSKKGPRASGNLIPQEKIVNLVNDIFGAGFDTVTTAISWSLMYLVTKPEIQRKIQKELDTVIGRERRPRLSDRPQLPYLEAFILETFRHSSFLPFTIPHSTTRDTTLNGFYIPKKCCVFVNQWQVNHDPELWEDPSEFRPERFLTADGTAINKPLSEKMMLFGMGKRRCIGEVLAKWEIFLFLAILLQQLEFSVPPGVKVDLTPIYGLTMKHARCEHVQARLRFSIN

[2] = biological target: T3, CYP1A2 (relative to CYP19A1) (Homo sapiens, UniProt P05177); assay: as above; format: in vitro ADME; conditions: human, human liver microsomes; ratio of CYP IC50 to CYP19A1 IC50; read-out: Selectivity CYP19A1 compared with CYP1A2
T3 construct: using a human liver microsomal assay with a CYP isoform specific probe substrate; tissue Cyprotex Discovery Limited; host or cells: human liver microsomes
T3 sequence (P05177 1-516): T2 sequence (P05177 1-516)

CYP2C9 [3] = biological target: T4, CYP2C9 (Homo sapiens, UniProt P11712); assay: as above; format: in vitro ADME; conditions: human liver microsomes, isoform specific probe substrate
T4 construct: tissue Cyprotex Discovery Limited; host or cells: human liver microsomes
T4 sequence (P11712 whole entry, canonical isoform): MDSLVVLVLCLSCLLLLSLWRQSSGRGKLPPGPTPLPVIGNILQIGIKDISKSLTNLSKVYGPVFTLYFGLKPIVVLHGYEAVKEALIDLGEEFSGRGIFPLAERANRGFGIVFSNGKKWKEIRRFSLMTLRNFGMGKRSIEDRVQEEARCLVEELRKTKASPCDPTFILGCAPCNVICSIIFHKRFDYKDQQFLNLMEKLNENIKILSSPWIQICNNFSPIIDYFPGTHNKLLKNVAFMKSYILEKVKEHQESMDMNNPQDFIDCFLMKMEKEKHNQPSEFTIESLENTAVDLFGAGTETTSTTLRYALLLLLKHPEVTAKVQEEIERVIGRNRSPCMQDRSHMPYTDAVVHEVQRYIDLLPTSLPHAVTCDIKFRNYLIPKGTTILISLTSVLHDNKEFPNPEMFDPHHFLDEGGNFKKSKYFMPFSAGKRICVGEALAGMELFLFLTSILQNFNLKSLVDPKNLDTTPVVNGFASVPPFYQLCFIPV

[4] = biological target: T5, CYP2C9 (relative to CYP19A1) (Homo sapiens, UniProt P11712); assay: as above; format: in vitro ADME; conditions: human, human liver microsomes; ratio of CYP IC50 to CYP19A1 IC50; read-out: Selectivity CYP19A1 compared with CYP2C9
T5 construct: using a human liver microsomal assay with a CYP isoform specific probe substrate; tissue Cyprotex Discovery Limited; host or cells: human liver microsomes
T5 sequence (P11712 whole entry, canonical isoform): as above

CYP2C19 [5] = biological target: T6, CYP2C19 (Homo sapiens, UniProt P33261); assay: as above; format: in vitro ADME; conditions: human liver microsomes, isoform specific probe substrate
T6 construct: using a human liver microsomal assay with a CYP isoform specific probe substrate; tissue Cyprotex Discovery Limited; host or cells: human liver microsomes
T6 sequence (P33261 whole entry, canonical isoform): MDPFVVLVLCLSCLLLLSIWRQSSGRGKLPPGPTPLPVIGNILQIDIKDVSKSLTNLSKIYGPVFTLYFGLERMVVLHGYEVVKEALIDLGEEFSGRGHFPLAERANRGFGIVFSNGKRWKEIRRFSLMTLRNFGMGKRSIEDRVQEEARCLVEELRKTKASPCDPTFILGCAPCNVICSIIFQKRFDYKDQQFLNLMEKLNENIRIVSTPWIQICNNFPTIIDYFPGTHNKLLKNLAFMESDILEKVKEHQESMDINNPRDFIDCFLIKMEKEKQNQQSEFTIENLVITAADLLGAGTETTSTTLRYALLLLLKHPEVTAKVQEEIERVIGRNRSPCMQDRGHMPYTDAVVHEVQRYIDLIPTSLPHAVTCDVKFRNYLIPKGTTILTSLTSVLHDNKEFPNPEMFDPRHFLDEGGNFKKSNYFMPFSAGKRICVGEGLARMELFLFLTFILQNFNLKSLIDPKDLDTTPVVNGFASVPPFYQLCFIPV

[6] = biological target: T7, CYP2C19 (relative to CYP19A1) (Homo sapiens, UniProt P33261); assay: as above; format: in vitro ADME; conditions: human, human liver microsomes; ratio of CYP IC50 to CYP19A1 IC50; read-out: Selectivity CYP19A1 compared with CYP2C19
T7 construct: using a human liver microsomal assay with a CYP isoform specific probe substrate; tissue Cyprotex Discovery Limited; host or cells: human liver microsomes
T7 sequence (P33261 whole entry, canonical isoform): as above

CYP3A4 [7] = biological target: T8, CYP3A4 (Homo sapiens, UniProt P08684); assay: as above; format: in vitro ADME; conditions: human liver microsomes, isoform specific probe substrate
T8 construct: using a human liver microsomal assay with a CYP isoform specific probe substrate; tissue Cyprotex Discovery Limited; host or cells: human liver microsomes
T8 sequence (P08684 whole entry, canonical isoform): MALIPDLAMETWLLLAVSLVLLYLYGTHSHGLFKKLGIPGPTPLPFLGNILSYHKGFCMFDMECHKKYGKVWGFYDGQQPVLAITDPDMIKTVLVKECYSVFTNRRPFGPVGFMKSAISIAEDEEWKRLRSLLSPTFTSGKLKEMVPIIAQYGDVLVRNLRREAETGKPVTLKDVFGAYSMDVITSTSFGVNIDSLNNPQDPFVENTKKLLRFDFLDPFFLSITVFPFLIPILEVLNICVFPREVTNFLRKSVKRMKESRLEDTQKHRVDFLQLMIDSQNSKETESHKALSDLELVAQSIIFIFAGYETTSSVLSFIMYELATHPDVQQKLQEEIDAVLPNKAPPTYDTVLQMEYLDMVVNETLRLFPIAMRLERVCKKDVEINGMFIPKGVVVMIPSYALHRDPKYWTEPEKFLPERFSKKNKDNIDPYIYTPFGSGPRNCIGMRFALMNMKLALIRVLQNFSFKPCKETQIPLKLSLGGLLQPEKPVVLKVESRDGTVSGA

[8] = biological target: T9, CYP3A4 (relative to CYP19A1) (Homo sapiens, UniProt P08684); assay: as above; format: in vitro ADME; conditions: human, human liver microsomes; ratio of CYP IC50 to CYP19A1 IC50; read-out: Selectivity CYP19A1 compared with CYP3A4
T9 construct: using a human liver microsomal assay with a CYP isoform specific probe substrate; tissue Cyprotex Discovery Limited; host or cells: human liver microsomes
T9 sequence (P08684 whole entry, canonical isoform): as above

[9] = biological target: CYP2D6 (relative to CYP19A1) (Homo sapiens, UniProt P10635); assay: in vitro; conditions: Selectivity CYP19A1 compared with CYP2D6, ratio of CYP IC50 to CYP19A1 IC50
CYP2D6 (relative to CYP19A1), sequence (P10635 whole entry, canonical isoform): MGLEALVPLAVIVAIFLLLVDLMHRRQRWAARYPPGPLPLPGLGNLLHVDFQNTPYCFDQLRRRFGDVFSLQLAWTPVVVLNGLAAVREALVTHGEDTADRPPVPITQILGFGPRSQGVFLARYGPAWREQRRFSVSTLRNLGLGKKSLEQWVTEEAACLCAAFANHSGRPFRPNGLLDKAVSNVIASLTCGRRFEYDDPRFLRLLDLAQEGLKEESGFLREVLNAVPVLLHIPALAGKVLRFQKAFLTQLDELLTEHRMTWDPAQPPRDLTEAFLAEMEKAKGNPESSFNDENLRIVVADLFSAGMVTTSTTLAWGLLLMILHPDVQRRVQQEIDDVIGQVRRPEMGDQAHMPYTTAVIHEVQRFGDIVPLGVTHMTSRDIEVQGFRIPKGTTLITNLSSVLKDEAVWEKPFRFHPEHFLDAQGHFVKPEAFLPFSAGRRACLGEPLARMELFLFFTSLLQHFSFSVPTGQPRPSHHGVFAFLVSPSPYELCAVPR

CYP2D6 = CYP2D6 (Homo sapiens, UniProt P10635); assay: CYP panel inhibition, human liver microsomal assay (Cyprotex); conditions: read-out: CYP2D6 IC50; human liver microsomes, isoform specific probe substrate
CYP2D6, sequence (P10635 whole entry, canonical isoform): as above

CYP2A6 = tested on: CYP2A6; set-up: method as in PMID 19198839, PMID 28977209; conditions: cited from earlier work
CYP2C19 [10] = tested on: CYP2C19; set-up: method as in PMID 19198839, PMID 28977209; conditions: cited from earlier work
CYP1A2 [11] = conditions: cited from earlier work
CYP2C9 [12] = conditions: cited from earlier work
CYP3A4 [13] = conditions: cited from earlier work
[14] = heterocyclic nitrogen basicity; cited from earlier work
[15] = JEG-3 cells, 0.001–10 nM inhibitor, 1 h incubation, triplicates, read-out: CYP19A1 IC50

Question: For COc1ccc2cc(C(O)(c3ccc(Br)cc3)c3cccnc3)oc2c1 (stereo not drawn) [Compound 4c, (4-Bromophenyl)(6-methoxybenzofuran-2-yl)(pyridin-3-yl)methanol], which IC50 (Aromatase (CYP19A1); [15]) is on record?
Answer: 0.0004 µM

Question: With COc1ccc2cc(C(O)(c3cccnc3)c3ccc(Cl)cc3Cl)oc2c1 (stereo not drawn) [Compound 4d, (2′,4′-Dichlorophenyl)(6-methoxybenzofuran-2-yl)(pyridin-3-yl)methanol] as the compound, how does the IC50 (Aromatase (CYP19A1); [15]) read?
Answer: 0.0019 µM

Question: Which IC50 (Aromatase (CYP19A1); [15]) does the source give for CC#CCOc1ccc2cc(C(O)(c3ccc(F)cc3)c3cccnc3)oc2c1 (stereo not drawn) [Compound 10a, (6-(But-2-yn-1-yloxy)benzofuran-2-yl)(4-fluorophenyl)(pyridin-3-yl)methanol] here?
Answer: ~0.01 µM

Question: For CC#CCOc1ccc2cc(C(O)(c3ccc(Cl)cc3)c3cccnc3)oc2c1 (stereo not drawn) [Compound 10b, (6-(But-2-yn-1-yloxy)benzofuran-2-yl)(4-chlorophenyl)(pyridin-3-yl)methanol], which IC50 (Aromatase (CYP19A1); [15]) is on record?
Answer: 0.00105 µM

Question: For CC#CCOc1ccc2cc(C(O)(c3ccc(Br)cc3)c3cccnc3)oc2c1 (stereo not drawn) [Compound 10c, (4-Bromophenyl)(6-(but-2-yn-1-yloxy)benzofuran-2-yl)(pyridin-3-yl)methanol], which IC50 (Aromatase (CYP19A1); CYP19A1 value restated in μM in CYP profile table, read-out: IC50, CYP isoform 19A1) is on record?
Answer: 0.00083 µM

Question: And the IC50 (Aromatase (CYP19A1); [15])?
Answer: 0.00083 µM

Question: What about the IC50 (CYP1A2 [1]) of the same compound?
Answer: > 25000 nM

Question: What about the selectivity ratio [2] of the same compound?
Answer: > 30000

Question: And the IC50 (CYP2C9 [3])?
Answer: 4900 ± 940 nM

Question: What about the selectivity ratio [4] of the same compound?
Answer: 5900

Question: What about the IC50 (CYP2C19 [5]) of the same compound?
Answer: 740 ± 160 nM

Question: And the selectivity ratio [6]?
Answer: 892

Question: And the IC50 (CYP3A4 [7])?
Answer: 3380 ± 510 nM

Question: And the selectivity ratio [8]?
Answer: 4070

Question: And the selectivity ratio [9]?
Answer: > 30000

Question: What about the IC50 (CYP2D6) of the same compound?
Answer: > 25000 nM

Question: For CC#CCOc1ccc2cc(C(O)(c3cccnc3)c3ccc(Cl)cc3Cl)oc2c1 (stereo not drawn) [Compound 10d, (6-(But-2-yn-1-yloxy)benzofuran-2-yl)(2,4-dichlorophenyl)(pyridin-3-yl)methanol], which IC50 (Aromatase (CYP19A1); [15]) is on record?
Answer: > 0.01 µM

Question: Which IC50 (Aromatase (CYP19A1); [15]) does the source give for CCC#CCOc1ccc2cc(C(O)(c3ccc(F)cc3)c3cccnc3)oc2c1 (stereo not drawn) [Compound 11a, (4-Fluorophenyl)(6-(pent-2-yn-1-yloxy)benzofuran-2-yl)(pyridin-3-yl)methanol] here?
Answer: ~0.01 µM

Question: Which IC50 (Aromatase (CYP19A1); [15]) does the source give for CCC#CCOc1ccc2cc(C(O)(c3ccc(Cl)cc3)c3cccnc3)oc2c1 (stereo not drawn) [Compound 11b, (4-Chlorophenyl)(6-(pent-2-yn-1-yloxy)benzofuran-2-yl)(pyridin-3-yl)methanol] here?
Answer: 0.00092 µM

Question: For CCC#CCOc1ccc2cc(C(O)(c3ccc(Br)cc3)c3cccnc3)oc2c1 (stereo not drawn) [Compound 11c, (4-Bromophenyl)(6-(pent-2-yn-1-yloxy)benzofuran-2-yl)(pyridin-3-yl)methanol], which IC50 (Aromatase (CYP19A1); [15]) is on record?
Answer: 0.0049 µM

Question: With CCC#CCOc1ccc2cc(C(O)(c3cccnc3)c3ccc(Cl)cc3Cl)oc2c1 (stereo not drawn) [Compound 11d, (2,4-Dichlorophenyl)(6-(pent-2-yn-1-yloxy)benzofuran-2-yl)(pyridin-3-yl)methanol] as the compound, how does the IC50 (Aromatase (CYP19A1); [15]) read?
Answer: > 0.01 µM

Question: With N#Cc1ccc(C(c2ccc(C#N)cc2)n2cncn2)cc1 [Letrozole] as the compound, how does the “inhibition of CYP2A6” value (CYP2A6) read?
Answer: significant competitive inhibition

Question: And the “inhibition of CYP2C19” value (CYP2C19 [10])?
Answer: modest inhibition

Question: What does the source list for CC(C)(C#N)c1cc(Cn2cncn2)cc(C(C)(C)C#N)c1 [anastrozole]?
Answer: inhibition of CYP1A2 (CYP1A2 [11]): some inhibition; inhibition of CYP2C9 (CYP2C9 [12]): some inhibition; inhibition of CYP3A4 (CYP3A4 [13]): some inhibition

Question: Which pKa [14] does the source give for c1nnn[nH]1 [tetrazole] here?
Answer: 4.8
